Test results taken from article PMC11233931, “Remodeling tumor‐associated macrophage for anti‐cancer effects by rational design of irreversible inhibition of mitogen‐activated protein kinase‐activated protein kinase 2” (MedComm, 2024).

What was measured:
Assay in all cases: Eurofins kinase selectivity profile against 380 other human recombinant kinases (Table S2)
Format in all cases: biochemical
[1] = molecular target: T1, 380 human recombinant protein kinases (Homo sapiens, UniProt Q13523); conditions: PRP4(h), read-out: Inhibition rate
T1 construct: purchased Eurofins (Celle Lévescault)
T1 sequence (Q13523 whole entry): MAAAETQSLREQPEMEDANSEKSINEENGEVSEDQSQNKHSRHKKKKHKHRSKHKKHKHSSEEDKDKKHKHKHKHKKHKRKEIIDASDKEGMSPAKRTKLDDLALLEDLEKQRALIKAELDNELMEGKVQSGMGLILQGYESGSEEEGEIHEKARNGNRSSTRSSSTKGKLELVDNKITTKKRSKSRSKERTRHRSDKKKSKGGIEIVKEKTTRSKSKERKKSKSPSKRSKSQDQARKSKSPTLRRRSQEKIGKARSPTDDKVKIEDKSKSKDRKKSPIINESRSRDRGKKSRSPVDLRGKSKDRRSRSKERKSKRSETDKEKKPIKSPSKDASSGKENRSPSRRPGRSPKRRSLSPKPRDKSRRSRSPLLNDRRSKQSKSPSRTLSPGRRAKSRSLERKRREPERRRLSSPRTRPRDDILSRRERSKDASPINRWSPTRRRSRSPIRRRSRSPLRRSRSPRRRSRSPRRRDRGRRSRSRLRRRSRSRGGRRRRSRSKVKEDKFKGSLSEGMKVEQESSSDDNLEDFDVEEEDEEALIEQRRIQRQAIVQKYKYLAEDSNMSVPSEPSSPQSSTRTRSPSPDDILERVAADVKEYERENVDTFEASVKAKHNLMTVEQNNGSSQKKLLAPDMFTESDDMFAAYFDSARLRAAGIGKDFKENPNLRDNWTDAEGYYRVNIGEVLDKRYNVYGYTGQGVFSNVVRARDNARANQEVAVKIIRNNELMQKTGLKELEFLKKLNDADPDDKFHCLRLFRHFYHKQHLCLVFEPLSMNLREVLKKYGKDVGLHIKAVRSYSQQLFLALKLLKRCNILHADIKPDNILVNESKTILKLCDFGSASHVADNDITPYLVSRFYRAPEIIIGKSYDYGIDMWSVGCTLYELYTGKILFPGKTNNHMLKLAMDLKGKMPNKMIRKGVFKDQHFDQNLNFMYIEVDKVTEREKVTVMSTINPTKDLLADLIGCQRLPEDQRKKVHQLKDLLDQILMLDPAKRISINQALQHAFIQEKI
Method in brief: (§1)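 Off-target profiling: one compound assayed by a commercial provider over 380 recombinant human protein kinases at various concentrations.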

[2] = molecular target: T2, 380 human recombinant protein kinases (Homo sapiens, UniProt P15735); conditions: PhKγ2(h), read-out: Inhibition rate
T2 construct: purchased Eurofins (Celle Lévescault)
T2 sequence (P15735 1-406): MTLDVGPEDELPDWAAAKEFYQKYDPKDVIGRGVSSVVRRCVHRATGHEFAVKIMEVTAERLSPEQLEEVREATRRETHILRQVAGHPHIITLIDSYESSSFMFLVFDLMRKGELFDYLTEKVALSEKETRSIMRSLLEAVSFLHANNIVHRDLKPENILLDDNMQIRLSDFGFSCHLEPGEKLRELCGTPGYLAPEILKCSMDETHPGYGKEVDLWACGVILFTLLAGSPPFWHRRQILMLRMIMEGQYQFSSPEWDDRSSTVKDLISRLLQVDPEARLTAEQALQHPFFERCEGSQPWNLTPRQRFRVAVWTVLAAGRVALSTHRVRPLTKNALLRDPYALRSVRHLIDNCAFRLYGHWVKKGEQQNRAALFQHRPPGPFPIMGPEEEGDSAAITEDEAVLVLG
Method in brief: as §1

[3] = molecular target: T3, 380 human recombinant protein kinases (Homo sapiens, UniProt O14578); conditions: CRIK(h), read-out: Inhibition rate
T3 construct: purchased Eurofins (Celle Lévescault)
T3 sequence (O14578 whole entry): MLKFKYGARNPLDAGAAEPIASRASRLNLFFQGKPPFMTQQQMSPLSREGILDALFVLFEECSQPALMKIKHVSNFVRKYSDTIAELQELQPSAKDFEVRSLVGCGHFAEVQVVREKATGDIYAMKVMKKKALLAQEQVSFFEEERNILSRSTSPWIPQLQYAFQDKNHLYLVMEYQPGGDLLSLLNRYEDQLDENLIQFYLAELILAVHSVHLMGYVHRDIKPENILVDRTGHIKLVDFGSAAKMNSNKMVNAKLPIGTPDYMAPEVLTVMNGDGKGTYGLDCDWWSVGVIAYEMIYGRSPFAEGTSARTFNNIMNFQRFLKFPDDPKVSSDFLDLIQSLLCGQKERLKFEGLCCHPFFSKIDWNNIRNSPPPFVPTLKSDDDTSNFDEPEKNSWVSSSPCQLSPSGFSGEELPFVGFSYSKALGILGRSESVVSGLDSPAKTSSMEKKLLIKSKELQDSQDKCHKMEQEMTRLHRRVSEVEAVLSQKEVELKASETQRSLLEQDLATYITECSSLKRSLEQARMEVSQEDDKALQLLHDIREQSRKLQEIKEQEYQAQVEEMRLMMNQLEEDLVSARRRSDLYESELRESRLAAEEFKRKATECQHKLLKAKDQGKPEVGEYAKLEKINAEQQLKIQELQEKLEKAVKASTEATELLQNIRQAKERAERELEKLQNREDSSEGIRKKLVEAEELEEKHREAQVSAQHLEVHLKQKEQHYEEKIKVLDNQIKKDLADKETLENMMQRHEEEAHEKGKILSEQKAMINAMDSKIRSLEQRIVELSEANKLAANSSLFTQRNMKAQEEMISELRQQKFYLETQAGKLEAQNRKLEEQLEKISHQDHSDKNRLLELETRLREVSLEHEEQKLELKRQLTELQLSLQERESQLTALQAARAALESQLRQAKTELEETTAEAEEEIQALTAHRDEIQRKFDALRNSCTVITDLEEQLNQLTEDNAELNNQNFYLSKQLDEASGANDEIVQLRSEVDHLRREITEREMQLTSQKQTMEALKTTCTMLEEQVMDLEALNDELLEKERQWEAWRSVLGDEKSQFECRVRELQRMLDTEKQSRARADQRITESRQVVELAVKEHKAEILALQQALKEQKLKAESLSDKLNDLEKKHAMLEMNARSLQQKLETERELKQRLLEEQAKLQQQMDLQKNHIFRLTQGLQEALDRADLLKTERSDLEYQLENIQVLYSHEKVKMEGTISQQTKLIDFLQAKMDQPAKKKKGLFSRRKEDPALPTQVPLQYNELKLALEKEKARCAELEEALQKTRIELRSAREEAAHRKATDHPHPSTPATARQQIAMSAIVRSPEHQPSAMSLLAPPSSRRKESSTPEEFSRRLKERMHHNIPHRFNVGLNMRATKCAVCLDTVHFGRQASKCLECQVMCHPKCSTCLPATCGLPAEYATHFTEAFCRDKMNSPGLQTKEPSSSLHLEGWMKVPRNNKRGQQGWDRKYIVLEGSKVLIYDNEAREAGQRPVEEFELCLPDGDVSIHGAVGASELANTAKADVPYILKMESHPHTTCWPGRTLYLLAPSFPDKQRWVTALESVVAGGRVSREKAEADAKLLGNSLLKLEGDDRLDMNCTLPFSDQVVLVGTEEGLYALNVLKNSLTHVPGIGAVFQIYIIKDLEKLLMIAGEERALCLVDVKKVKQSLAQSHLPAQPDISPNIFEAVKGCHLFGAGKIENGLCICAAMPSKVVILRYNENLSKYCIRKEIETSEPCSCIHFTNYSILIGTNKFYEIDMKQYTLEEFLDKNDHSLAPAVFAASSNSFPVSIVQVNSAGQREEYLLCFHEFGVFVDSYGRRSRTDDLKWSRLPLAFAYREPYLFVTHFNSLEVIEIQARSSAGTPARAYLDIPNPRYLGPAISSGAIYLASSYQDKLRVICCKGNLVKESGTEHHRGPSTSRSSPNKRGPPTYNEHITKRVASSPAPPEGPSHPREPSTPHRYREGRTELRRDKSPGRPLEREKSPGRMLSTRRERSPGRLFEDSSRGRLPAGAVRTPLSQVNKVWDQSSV
Method in brief: as §1

[4] = molecular target: T4, 380 human recombinant protein kinases (Homo sapiens, UniProt Q00537); conditions: CDK17/cyclinY(h), read-out: Inhibition rate
T4 construct: purchased Eurofins (Celle Lévescault)
T4 sequence (Q00537 whole entry): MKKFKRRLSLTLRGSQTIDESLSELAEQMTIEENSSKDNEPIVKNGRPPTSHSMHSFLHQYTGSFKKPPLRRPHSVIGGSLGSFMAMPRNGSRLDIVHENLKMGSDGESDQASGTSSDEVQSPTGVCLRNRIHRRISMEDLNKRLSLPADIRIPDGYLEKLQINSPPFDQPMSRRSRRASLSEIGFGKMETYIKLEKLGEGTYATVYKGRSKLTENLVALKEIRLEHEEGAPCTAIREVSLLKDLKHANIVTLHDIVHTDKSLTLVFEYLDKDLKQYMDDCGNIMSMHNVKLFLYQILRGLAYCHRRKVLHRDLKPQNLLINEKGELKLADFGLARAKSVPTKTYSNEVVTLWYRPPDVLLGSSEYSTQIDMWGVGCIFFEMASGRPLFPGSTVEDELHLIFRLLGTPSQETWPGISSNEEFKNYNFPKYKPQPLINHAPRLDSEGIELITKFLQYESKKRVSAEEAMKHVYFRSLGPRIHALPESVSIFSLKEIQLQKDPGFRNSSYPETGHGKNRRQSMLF
Method in brief: as §1

[5] = molecular target: T5, 380 human recombinant protein kinases (Homo sapiens, UniProt O00506); conditions: STK25(h), read-out: Inhibition rate (%)
T5 construct: purchased Eurofins (Celle Lévescault)
T5 sequence (O00506 whole entry): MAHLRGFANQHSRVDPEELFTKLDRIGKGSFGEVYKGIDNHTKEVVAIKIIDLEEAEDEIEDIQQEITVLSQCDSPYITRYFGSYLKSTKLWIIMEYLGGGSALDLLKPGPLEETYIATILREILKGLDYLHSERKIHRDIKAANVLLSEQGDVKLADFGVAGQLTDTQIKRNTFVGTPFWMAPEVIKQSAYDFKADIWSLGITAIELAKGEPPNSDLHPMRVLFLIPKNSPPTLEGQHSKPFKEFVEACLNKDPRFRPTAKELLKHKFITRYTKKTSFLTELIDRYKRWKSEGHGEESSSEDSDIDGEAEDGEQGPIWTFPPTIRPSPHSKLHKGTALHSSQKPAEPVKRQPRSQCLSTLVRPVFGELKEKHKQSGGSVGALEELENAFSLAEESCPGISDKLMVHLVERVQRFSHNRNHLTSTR
Method in brief: as §1

[6] = molecular target: T6, 380 human recombinant protein kinases (Homo sapiens, UniProt Q13627); conditions: DYRK1A(h), read-out: Inhibition rate
T6 construct: purchased Eurofins (Celle Lévescault)
Method in brief: as §1

[7] = molecular target: T7, 380 human recombinant protein kinases (Homo sapiens, UniProt Q9BZL6); conditions: PKD2(h), read-out: Inhibition rate
T7 construct: purchased Eurofins (Celle Lévescault)
T7 sequence (Q9BZL6 1-878): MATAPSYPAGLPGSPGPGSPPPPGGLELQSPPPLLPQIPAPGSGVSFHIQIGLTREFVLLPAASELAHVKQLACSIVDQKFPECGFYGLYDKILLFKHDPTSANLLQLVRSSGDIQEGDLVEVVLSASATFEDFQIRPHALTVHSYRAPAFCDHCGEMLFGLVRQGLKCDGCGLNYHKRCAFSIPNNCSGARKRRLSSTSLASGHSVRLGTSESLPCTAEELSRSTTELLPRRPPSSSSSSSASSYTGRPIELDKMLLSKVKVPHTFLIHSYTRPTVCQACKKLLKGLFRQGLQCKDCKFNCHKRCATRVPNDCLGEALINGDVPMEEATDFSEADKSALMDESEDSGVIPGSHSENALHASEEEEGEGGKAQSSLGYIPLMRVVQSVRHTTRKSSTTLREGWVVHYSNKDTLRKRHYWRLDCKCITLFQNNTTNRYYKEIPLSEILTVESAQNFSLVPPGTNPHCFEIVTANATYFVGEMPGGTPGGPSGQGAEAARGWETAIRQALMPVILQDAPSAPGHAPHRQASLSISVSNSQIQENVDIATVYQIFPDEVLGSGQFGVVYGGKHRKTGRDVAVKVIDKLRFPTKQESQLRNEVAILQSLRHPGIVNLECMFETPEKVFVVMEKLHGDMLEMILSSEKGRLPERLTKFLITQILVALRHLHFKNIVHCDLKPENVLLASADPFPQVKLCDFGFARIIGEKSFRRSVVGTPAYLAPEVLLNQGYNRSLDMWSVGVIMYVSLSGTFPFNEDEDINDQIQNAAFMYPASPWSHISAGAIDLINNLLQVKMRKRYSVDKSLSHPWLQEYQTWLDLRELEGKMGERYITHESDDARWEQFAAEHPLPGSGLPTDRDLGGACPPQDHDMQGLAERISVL
Method in brief: as §1

[8] = molecular target: T8, 380 human recombinant protein kinases (Homo sapiens, UniProt Q9H3Y6); conditions: SRMS(h), read-out: Inhibition rate (%)
T8 construct: purchased Eurofins (Celle Lévescault)
T8 sequence (Q9H3Y6 whole entry): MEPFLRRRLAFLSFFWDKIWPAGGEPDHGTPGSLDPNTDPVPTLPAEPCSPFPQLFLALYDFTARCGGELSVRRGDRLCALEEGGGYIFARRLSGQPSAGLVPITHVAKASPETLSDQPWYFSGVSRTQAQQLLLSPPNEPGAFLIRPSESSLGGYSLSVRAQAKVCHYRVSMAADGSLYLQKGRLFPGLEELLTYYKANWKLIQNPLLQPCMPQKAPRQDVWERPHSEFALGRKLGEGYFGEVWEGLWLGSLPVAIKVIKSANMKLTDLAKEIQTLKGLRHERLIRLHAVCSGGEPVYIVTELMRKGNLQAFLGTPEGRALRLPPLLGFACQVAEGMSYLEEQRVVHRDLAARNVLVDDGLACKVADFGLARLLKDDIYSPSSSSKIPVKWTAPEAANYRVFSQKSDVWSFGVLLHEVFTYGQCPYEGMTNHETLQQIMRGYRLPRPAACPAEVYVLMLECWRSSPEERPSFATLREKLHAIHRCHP
Method in brief: as §1

[9] = molecular target: T9, 380 human recombinant protein kinases (Homo sapiens, UniProt Q16654); conditions: PDHK4(h), read-out: Inhibition rate
T9 construct: purchased Eurofins (Celle Lévescault)
T9 sequence (Q16654 whole entry): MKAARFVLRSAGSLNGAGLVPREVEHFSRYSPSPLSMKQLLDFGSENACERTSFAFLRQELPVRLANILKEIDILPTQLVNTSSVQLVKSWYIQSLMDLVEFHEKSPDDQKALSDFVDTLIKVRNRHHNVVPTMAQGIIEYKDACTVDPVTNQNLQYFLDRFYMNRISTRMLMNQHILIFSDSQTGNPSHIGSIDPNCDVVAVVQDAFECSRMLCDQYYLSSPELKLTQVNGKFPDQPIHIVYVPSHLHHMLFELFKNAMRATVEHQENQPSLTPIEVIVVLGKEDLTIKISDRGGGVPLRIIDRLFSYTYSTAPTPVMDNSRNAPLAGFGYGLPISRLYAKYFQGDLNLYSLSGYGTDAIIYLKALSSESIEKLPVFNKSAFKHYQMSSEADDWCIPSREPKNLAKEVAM
Method in brief: as §1

C=CC(=O)Nc1cc(-c2cc(-c3cc4c([nH]3)CCNC4=O)ccn2)ccc1OC(F)(F)F [compound 11] was tested, and the inhibition at 0.01 µM ([1]; 10 nM) was -1%, the inhibition at 0.1 µM ([1]; 100 nM) was -3% and the inhibition at 1 µM ([1]; 1000 nM) was 12%. The inhibition at 0.01 µM ([2]; 10 nM) was 8%, the inhibition at 0.1 µM ([2]; 100 nM) was 1% and the inhibition at 1 µM ([2]; 1000 nM) was 2%. For the same compound, the inhibition at 0.01 µM ([3]; 10 nM) was -8%, the inhibition at 0.1 µM ([3]; 100 nM) was 6% and the inhibition at 1 µM ([3]; 1000 nM) was 29%. The inhibition at 0.01 µM ([4]; 10 nM) was 13%, the inhibition at 0.1 µM ([4]; 100 nM) was 19% and the inhibition at 1 µM ([4]; 1000 nM) was 25%. It also gave an inhibition at 0.01 µM ([5]; 10 nM) of -4%, an inhibition at 0.1 µM ([5]; 100 nM) of 1% and an inhibition at 1 µM ([5]; 1000 nM) of 0%. For the same compound, the inhibition at 0.01 µM ([6]; 10 nM) was 20%, the inhibition at 0.1 µM ([6]; 100 nM) was 76% and the inhibition at 1 µM ([6]; 1000 nM) was 96%. For the same compound, the inhibition at 0.01 µM ([7]; 10 nM) was 0%, the inhibition at 0.1 µM ([7]; 100 nM) was 8% and the inhibition at 1 µM ([7]; 1000 nM) was 47%. For the same compound, the inhibition at 0.01 µM ([8]; 10 nM) was 1%, the inhibition at 0.1 µM ([8]; 100 nM) was 10% and the inhibition at 1 µM ([8]; 1000 nM) was 7%. The inhibition at 0.01 µM ([9]; 10 nM) was -5%, the inhibition at 0.1 µM ([9]; 100 nM) was -7% and the inhibition at 1 µM ([9]; 1000 nM) was -19%.
